Measured values taken from patent publication US11578369B2, “Method for the in vitro prognosis of individuals having multiple myeloma and method for the treatment thereof” (CENTRE NATIONAL DE LA RECHERCHE SCIENTIFIQUE, priority 2016, dated 2023).
Values joined by “and” are separate entries in the source; they are usually repeats but may differ in a detail not shown here. Identical values can stand only once.

How the values were obtained:
Assay type in all cases: cell-based, human
HMCLs [1] = assay: Sublethal dose (IC10) of Decitabine on HMCLs
Method: To assess the potential synergistic effect of the inhibition of these two repressive mechanisms, we tested the combination of a sublethal dose of Decitabine (100 nM, IC10) with EPZ-6438 (1 μM) on two EPZ-6438-resistant HMCLs. […] Therefore, DNA hypomethylation can collaborate with EZH2 inhibition to block MM cell growth.

IKZF1 = IKZF1 protein level in HMCLs by flow cytometry; conditions: 1 μM EPZ-6438 4 days, then 2 days with or without 2 μM lenalidomide
Method: (§1) The expression of IKZF1, c-Myc and IRF4 in HMCLs was evaluated by flow cytometry using PE-conjugated anti-IKZFL anti-MYC and anti-IRF4 mAb and isotype matched PE-conjugated mAb. Data are mean values±standard deviation (SD) of three experiments.
(§2) The expression of IKZF1, c-Myc and IRF4 in HMCLs was evaluated by flow cytometry using PE-conjugated anti-IKZF1, anti-MYC and anti-IRF4 mAb and isotype matched PE-conjugated mAb. IKZF1 expression was assessed by immunofluorescence using an anti-IKZF1 primary antibody and an AF555-conjugated secondary antibody and further plotted onto a graph.
(§3) Cells were fixed for 10 min with Cytofix/Cytoperm (BD BIOSCIENCES®) at 4° C.
(§4) IMiDs promote Ikaros and Aiolos transcription factors binding to the E3 ubiquitin ligase cereblon (CRBN) leading to Ikaros and Aiolos ubiquitination and proteasomal degradation. Ikaros and Aiolos degradation are associated with a downregulation of Interferon regulatory factor 4 (IRF4) and MYC playing an essential role in MMC survival.

MYC = MYC protein level in HMCLs by flow cytometry; conditions: 1 μM EPZ-6438 4 days, then 2 days with or without 2 μM lenalidomide
Method: as §1, §2, §3, §4

HMCLs [2] = assay: Sensitivity of HMCLs with high or low EZ score to EPZ-6438, cell growth assay; conditions: 1 μM EPZ-6438, 8 days; P=0.04
Method: FIG. 3A: EZ score predicts for sensitivity of HMCLs and primary MMCs to EZH2 inhibitor. […] Human myeloma cell lines were cultured for 8 days in 96-well flat-bottom microtiter plates in RPMI 1640 medium, 10% fetal calf serum, 2 ng/ml IL-6 culture medium (control) and 1 μM EPZ-6438. Data are mean values±standard deviation (s.d.) of five experiments determined.
HMCLs were cultured for 15 days in RPMI 1640 medium, 10% FCS, and 2 ng/ml IL-6 (control medium) in the presence of EPZ-6438 ([…]®). Cell concentration and viability were assessed using trypan blue dye exclusion test. The number of metabolic-active was also determined using intracellular ATP quantitation. […] Cell growth was evaluated by quantifying intracellular ATP amount with a Cell Titer Glo Luminescent Assay (PROMEGA®, Madison, Wis.) using a Centro LB 960 luminometer (BERTHOLD TECHNOLOGIES®, Bad Wildbad, Germany).
It was then sought to validate whether the EZ-score could predict for the sensitivity of 10 HMCLs to EPZ-6438. Starting from the large cohort of 40 HMCLs, the response of 5 HMCLs with a high EZ score and 5 HMCLs with a low EZ score to EPZ-6438 EZH2 inhibitor was analyzed.

primary MMCs = assay: Sensitivity of patients' primary MMCs to EPZ-6438, 8-day culture, viable MMC count by CD138 flow cytometry; conditions: primary MMCs of 14 MM patients, one table row per patient; 1 μM EPZ-6438, 8 days, IL-6; in % (unit assumed)
Method: FIG. 3B: EZ score predicts for sensitivity of HMCLs and primary MMCs to EZH2 inhibitor. EZ score predicts for EPZ-6438 sensitivity of primary myeloma cells of patients. Mononuclear cells from tumor samples of 14 patients with MM were cultured for 8 days in the presence of IL-6 (2 ng/ml) with or without 1 μM EPZ-6438. At day 8 of culture, the count of viable MMCs was determined using CD138 staining by flow cytometry.
Bone marrow samples were collected after patients' written informed consent in accordance with the Declaration of Helsinki and institutional research board approval from Heidelberg and Montpellier University hospital. […] The structural chromosomal aberrations including t(4; 14)(p16.3; q32.3) and t(11; 14)(q13; q32.3), as well as numerical aberrations including 17p13 and 1q21 gain, were assayed by fluorescence in situ hybridization (iFISH). […] As iFISH data are not available for UAMS-TT2 patients, t(4; 14) translocation was evaluated using MMSET spike expression and del17p13 surrogated by TP53 probe set signal. […]
The inventors have determined that a set of 5 genes that are differentially expressed in a cohort of 14 MM individuals is associated with a prognostic value of their responsiveness to the EZH2 inhibitor EPZ-6438, as shown in Table 2 below. […]

[3] = test system: LP1 and XG19 lenalidomide sensitive cell lines; assay: Lenalidomide sensitivity of HMCLs after EPZ-6438 pretreatment, cell growth assay; conditions: 4 days 1 uM EPZ-6438 prior to lenalidomide, P<0.05
Method: HMCLs were cultured for 15 days in RPMI 1640 medium, 10% FCS, and 2 ng/ml IL-6 (control medium) in the presence of EPZ-6438 ([…] ®). Cell concentration and viability were assessed using trypan blue dye exclusion test. The number of metabolic-active was also determined using intracellular ATP quantitation.

IRF4 = IRF4 protein level in HMCLs by flow cytometry; conditions: 1 μM EPZ-6438 4 days, then 2 days with or without 2 μM lenalidomide
Method: as §1, §2, §3, §4

SMILES | IC10 (HMCLs [1]) | IKZF1 protein level inhibition (IKZF1) | MYC protein level inhibition (MYC) | median higher EPZ-6438 sensitivity, 5 HMCLs with highest EZ score compared to 5 HMCLs with low EZ-score (HMCLs [2]) | Response (primary MMCs) | sensitization of myeloma cell lines to lenalidomide treatment [3] | IRF4 protein level inhibition (IRF4)
Nc1ncn([C@H]2C[C@H](O)[C@@H](CO)O2)c(=O)n1 [Decitabine] | 100 nM | – | – | – | – | – | –
CCN(c1cc(-c2ccc(CN3CCOCC3)cc2)cc(C(=O)NCc2c(C)cc(C)[nH]c2=O)c1C)C1CCOCC1 [EPZ-6438, EPZ-6438 (Tazemetostat)] | – | 45.2% | 6.2% | 20 fold | 64.15 and 46.39 and 53.41 and 61.33 and 72.61 and 112.5 and 84.96 and 118 and 79.27 and 77.76 and 101.43 and 73.09 and 66.53 and 72.01 | significantly sensitize | 38.7%
Nc1cccc2c1CN(C1CCC(=O)NC1=O)C2=O (stereo not drawn) [lenalidomide] | – | – | 2.2% | – | – | – | 43%
